Patent US5218114A, “Cholecystokinin antagonists” (Merck & Co., Inc., priority 1992, dated 1993)
pIC50: −log10 of the molar value. Where two headings read alike, the source gives them in different places. Square brackets hold non-standard residues; d marks the D form. Peptide text beside a SMILES is read from it. * marks the point of attachment. sY = N[C@@H](Cc1ccc(OS(=O)(=O)O)cc1)C(=O)O; Cbz = O=C(OCc1ccccc1)*

Tests used:
[1] = target: T1, CCK receptor (brain, cortex) (Cavia porcellus, UniProt H0VZC5); assay: CCK Receptor Binding (Brain); design: species or system guinea pig (male Hartley)
T1 construct: the cortex was removed and homogenized in 25 mL ice-cold 0.32M sucrose; from tissue; host or cells: guinea pig brain cortex, P2 membranes
T1 sequence (H0VZC5 1-426): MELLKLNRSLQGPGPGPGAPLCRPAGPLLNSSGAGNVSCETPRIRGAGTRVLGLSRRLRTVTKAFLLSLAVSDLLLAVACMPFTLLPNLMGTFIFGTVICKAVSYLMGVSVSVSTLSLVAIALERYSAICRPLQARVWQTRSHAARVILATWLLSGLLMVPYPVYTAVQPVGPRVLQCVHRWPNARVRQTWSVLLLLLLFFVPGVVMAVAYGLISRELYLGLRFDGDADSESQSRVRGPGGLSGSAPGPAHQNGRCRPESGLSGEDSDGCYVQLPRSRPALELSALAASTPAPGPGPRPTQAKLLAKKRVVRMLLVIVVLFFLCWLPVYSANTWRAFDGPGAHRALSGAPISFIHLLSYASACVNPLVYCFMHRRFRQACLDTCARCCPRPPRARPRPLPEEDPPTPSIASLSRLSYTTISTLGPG
Protocol: 2. CCK Receptor Binding (Brain)
CCK-8 sulphated was radiolabelled and the binding was performed according to the description for the pancreas method with minor modifications.
Male Hartley guinea pigs (300-500 g) were sacrificed by decapitation and the cortex was removed and homogenized in 25 mL ice-cold 0.32M sucrose. The homogenates were centrifuged at 1000 g for 10 minutes and the resulting supernatant was recentrifuged at 20,000 g for 20 minutes. […] All assays were run in duplicate. The reaction mixtures were incubated at 25° C. for 2 hours and then the reaction was terminated on Whatman GF/C filters by rapid filtration (Brandell 24 well cell Harvester) with 3×5 ml washes of cold 100 mM NaCl. The radioactivity on the filters was then counted with a LKB gamma counter.
(§1) Drug displacement studies were performed with at least 10 concentrations of compounds of formula 1 and the IC50 values were determined by regression analysis.

CCK receptor (pancreas) = target: T2, CCK receptor (pancreas) (Rattus norvegicus, UniProt P30551); assay: CCK Receptor Binding (Pancreas); design: species or system rat (male Sprague-Dawley)
T2 construct: The whole pancreas was dissected free of fat tissue and was homogenized; from tissue; host or cells: rat whole pancreas, homogenate membranes
T2 sequence (P30551 1-444): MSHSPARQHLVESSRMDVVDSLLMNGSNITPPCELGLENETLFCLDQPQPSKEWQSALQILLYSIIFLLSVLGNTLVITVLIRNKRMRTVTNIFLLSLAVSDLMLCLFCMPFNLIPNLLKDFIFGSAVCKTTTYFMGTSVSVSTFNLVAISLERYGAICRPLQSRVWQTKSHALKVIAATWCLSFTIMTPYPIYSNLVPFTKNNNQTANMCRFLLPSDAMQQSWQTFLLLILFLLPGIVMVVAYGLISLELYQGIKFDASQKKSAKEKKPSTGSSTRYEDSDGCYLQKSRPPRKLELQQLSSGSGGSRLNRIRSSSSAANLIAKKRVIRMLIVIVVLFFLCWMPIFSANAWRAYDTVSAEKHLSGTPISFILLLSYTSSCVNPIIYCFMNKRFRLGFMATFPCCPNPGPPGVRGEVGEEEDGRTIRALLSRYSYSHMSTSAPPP
Protocol: 1. CCK Receptor Binding (Pancreas)
CCK-8 sulphated was radiolabelled with ^125 I-Bolton Hunter reagent (2000 Ci/mmole). Receptor binding was performed according to Chang and Lotti (Proc. Natl. Acad. Sci. 83, 4923-4926, 1986) with minor modifications.
Male Sprague-Dawley rats (150-200 g) were sacrificed by decapitation. The whole pancreas was dissected free of fat tissue and was homogenized in 25 volumes of ice-cold 10 mM Hepes buffer with 0.1% soya bean trypsin inhibitor (pH 7.4 at 25° C.) with a Kinematica Polytron. The homogenates were centrifuged at 47,800 g for 10 min. Pellets were resuspended in 10 volumes of binding assay buffer (20 mM Hepes, 1 mM EGTA, 5 mM MgCl2, 150 mM NaCl, bacitracin 0.25 mg/ml, soya bean trypsin inhibitor 0.1 mg/ml, and bovine serum albumin 2 mg/ml, pH 6.5 at 25° C.) using a teflon homogenizer, 15 strokes at 500 rpm. The homogenate was further diluted in binding assay buffer to give a final concentration of 0.5 mg original wet weight/1 ml buffer. […] All assays were run in duplicate. The reaction mixtures were incubated at 25° C. for 2 hours and the reaction terminated by rapid filtration (Brandell 24 well cell harvester) over Whatman GF/C filters, washing 3×4 mls with ice-cold 100 mM NaCl. The radioactivity on the filters was counted with a LKB gamma counter.
as §1

CCK receptor = conditions: literature; cited from earlier work
gastrin = conditions: J. Martinez, J. Med. Chem. 27, 1597 (1984); cited from earlier work
CCK-B receptors = conditions: Bock et al., J. Med. Chem., 32, 13-16 (1989); cited from earlier work
[2] = 125I-CCK-8 50 pM, guinea pig cortex, 25° C., 2 hours, read-out: CCK RECEPTOR BINDING RESULTS IC50, 125I-CCK Brain
[3] = 125I-CCK-8 50 pM, rat pancreas, 25° C., 2 hours, read-out: CCK RECEPTOR BINDING RESULTS IC50, 125I-CCK Pancreas

Structure (SMILES) | pIC50 [1, 2] | pIC50 (CCK receptor (pancreas)) | further results
O=C(Nc1ccc(Cl)cc1)NC1N=C(c2ccccc2)c2ccccc2N(CC(O)CN2CCCC2)C1=O (centres unmarked) [Example 2, N-{1,3-Dihydro-1-[3-((pyrrolidinyl)-2-hydroxy)propyl]-2-oxo-5-phenyl-1H-1,4-benzodiazepin-3-yl}-N'-{[4-chlorophenyl]-urea}] | 6.52 | < 5.52 | 
O=C(Nc1ccc(Cl)cc1)NC1N=C(c2ccccc2)c2ccccc2N(Cc2nnn[nH]2)C1=O (centres unmarked) [Example 1, N-{1,3-Dihydro-1-[1H-tetrazol-5yl]methyl-2-oxo-5-phenyl-1H-1,4-benzodiazepin-3-yl}-N'-{[4-chlorophenyl]-urea}] | 6.31 | 5.67 | 
CSCC[C@H](NC(=O)[C@H](Cc1ccc(OS(=O)(=O)O)cc1)NC(=O)OCc1ccccc1)C(=O)NCC(=O)N[C@@H](Cc1c[nH]c2ccccc12)C(=O)N[C@@H](CCSC)C(=O)N[C@@H](CC(=O)O)C(N)=O [Cbz--Tyr(SO3 H)--Met--Gly--Trp--Met--Asp--NH2] (Cbz-[sY]MGWMD-NH2) |  |  | CCK-receptor antagonist potency / agonism (CCK receptor): partial agonist
O=C(Nc1ccc(Cl)cc1)NC1N=C(c2ccccc2)c2ccccc2N(CC(O)CO)C1=O (centres unmarked) [Example 5, N-{1,3-Dihydro-1-[2,3-(dihydroxy)propyl]-2-oxo-5-phenyl-1H-1,4-benzodiazepin-3-yl}-N'-{[4-chlorophenyl]-urea}] |  |  | pIC50 [1]: 6.93; pIC50 (CCK receptor (pancreas); [3]): < 5.52
CCCN(CCC)C(=O)C(CCC(=O)O)NC(=O)c1ccccc1 (centres unmarked) [proglumide] |  |  | in vitro gastrin antagonism (gastrin): very weak in vitro antagonists
CCCC(=O)Nc1nc2c(ncn2[C@@H]2O[C@@H]3COP(=O)(O)O[C@H]3[C@H]2OC(=O)CCC)c(=O)[nH]1 [dibutyryl cyclic GMP] |  |  | CCK-receptor antagonist potency / agonism (CCK receptor): the most potent
CN(C)CC(O)CN1C(=O)C(NC(=O)Nc2ccc(Cl)cc2)N=C(c2ccccc2)c2ccccc21 (centres unmarked) [Example 3, N-{1,3-Dihydro-1-[3-((dimethylamino)-2-hydroxy)propyl]-2-oxo-5-phenyl-1H-1,4-benzodiazepin-3-yl}-N'-{[4-chlorophenyl]-urea}] | 6.37 | < 5.52 | 
Cc1cccc(NC(=O)N[C@@H]2N=C(c3ccccc3)c3ccccc3N(C)C2=O)c1 [(R)-N-(2,3-dihydro-1-methyl-2-oxo-5-phenyl-1H-1,4-benzodiazepin-3-yl)-N^1-(3-methylphenyl) urea] |  |  | antagonist of CCK-B receptors (CCK-B receptors): potent and selective antagonist of CCK-B receptors
O=C(Nc1ccc(Cl)cc1)NC1N=C(c2ccccc2)c2ccccc2N(CC(Cl)CO)C1=O (centres unmarked) [Example 4, N-{1,3-Dihydro-1-[3-((hydroxy)-2-chloro)propyl]-2-oxo-5-phenyl-1H-1,4-benzodiazepin-3-yl}-N'-{[4-chlorophenyl]-urea}] | 7.21 |  | pIC50 (CCK receptor (pancreas); [3]): < 5.52
